In the supplement of paper PMC11208160:

Assay: recombinant UMI read abundance after kanamycin selection (control-corrected) (log10(CPM+1)); higher = more efficient recombination; extreme values may be limits of the assay; sequences stand for … in AGTGCAGAGAAAATCGGCCAGTTTTCTCTGCCTGCAGTCCGCATGCCGTGGGACCCCTTGGGTTCTAACCTGTTGCCTAGATTTATGCAGCGGACTGCCTTTCTCCCAAAGTGATAAACCGG…AGGTTGGTTTCACT; site = the 11-nt donor
In short: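 Pooled Escherichia coli screen of donor and donor-binding-loop pairs for the IS621 bridge recombinase. Each pair sits with a 12-nt UMI on a plasmid carrying a promoterless kanamycin gene. The library was co-electroporated with a target plasmid encoding a fixed target and T7-inducible recombinase, then plated with IPTG (0.07 mM) plus kanamycin, or unselected, each in two replicates. Recombinant UMIs were PCR-amplified across the donor–target junction and sequenced. Counts became CPM, averaged over replicates, scaled by control-derived factors and reported as log10(CPM+1).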
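Also: IS621 bridge recombinase in Escherichia coli cells against a fixed T5 target plasmid.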

Sequence	recombinant UMI read abundance (log10)
CACGCCTCATGGACCGGTTTTCCCGGTAATCCGTATTTGCC (site CACGCCTCTGG)	3.32
CACGCCTCATGGACCGGTTTTCCCGGTAATCCGTATTTGCC (site CACTCCTCTGG)	2.11
CACGCGACATGGACCGGTTTTCCCGGTAATCCGTATTTGTA (site CACGCGACTTA)	2.4
CACGGCCCATGGACCGGTTTTCCCGGTAATCCGTATTTGAT (site CACGGCCCTAA)	0.0181
CACGGCCCATGGACCGGTTTTCCCGGTAATCCGTATTTGAT (site CACGGCCCTAC)	0.0396
CACGGCCCATGGACCGGTTTTCCCGGTAATCCGTATTTGAT (site CACGGCCCTAG)	0
CACGGCCCATGGACCGGTTTTCCCGGTAATCCGTATTTGAT (site CACGGCCCTAT)	0.255
CACGGCCCATGGACCGGTTTTCCCGGTAATCCGTATTTGGT (site CACGGCCCTAA)	0.0236
CACGGCCCATGGACCGGTTTTCCCGGTAATCCGTATTTGGT (site CACGGCCCTAC)	0.00703
CACGGCCCATGGACCGGTTTTCCCGGTAATCCGTATTTGGT (site CACGGCCCTAG)	0
CACGGCCCATGGACCGGTTTTCCCGGTAATCCGTATTTGGT (site CACGGCCCTAT)	0.456
CACGGCCCATGGACCGGTTTTCCCGGTAATCCGTATTTGTA (site CACGGCCCTAA)	0.00609
CACGGCCCATGGACCGGTTTTCCCGGTAATCCGTATTTGTA (site CACGGCCCTCA)	0.0202
CACGGCCCATGGACCGGTTTTCCCGGTAATCCGTATTTGTA (site CACGGCCCTGA)	1.81
CACGGCCCATGGACCGGTTTTCCCGGTAATCCGTATTTGTA (site CACGGCCCTTA)	0.29
CACGGGCCATGGACCGGTTTTCCCGGTAATCCGTATTTGTT (site CACGGACCTAA)	0
CACGGGCCATGGACCGGTTTTCCCGGTAATCCGTATTTGTT (site CACGGCCCTAA)	0.234
CACGGGCCATGGACCGGTTTTCCCGGTAATCCGTATTTGTT (site CACGGGCCTAA)	0.574
CACGGGCCATGGACCGGTTTTCCCGGTAATCCGTATTTGTT (site CACGGTCCTAA)	0.00819
CACGGGTCATGGACCGGTTTTCCCGGTAATCCGTATTTGCT (site CACGGGTCTAG)	2.17
CACGGTCCATGGACCGGTTTTCCCGGTAATCCGTATTTGAT (site CACGGTCCTAT)	0.938
CACGGTTCATGGACCGGTTTTCCCGGTAATCCGTATTTGGG (site CACGGTTCTCC)	1.03
CACGTACCATGGACCGGTTTTCCCGGTAATCCGTATTTGCA (site CACGTACCTTG)	0
CACTACTCATGGACCGGTTTTCCCGGTAATCCGTATTTGTT (site CACTACTCTAA)	2.71
CACTAGGCATGGACCGGTTTTCCCGGTAATCCGTATTTGTA (site CACTAGGCTTA)	1.42

Sequence	recombinant UMI read abundance (log10)
CACTATGCATGGACCGGTTTTCCCGGTAATCCGTATTTGAT (site CACTATGCTAT)	1.93
CACTCAGCATGGACCGGTTTTCCCGGTAATCCGTATTTGCC (site CACTCAGCTGG)	2.5
CACTCCACATGGACCGGTTTTCCCGGTAATCCGTATTTGCG (site CACTCCACTCG)	1.09
CACTCGGCATGGACCGGTTTTCCCGGTAATCCGTATTTGGA (site CACTAGGCTTC)	0.232
CACTCGGCATGGACCGGTTTTCCCGGTAATCCGTATTTGGA (site CACTCGGCTTC)	1.09
CACTCGGCATGGACCGGTTTTCCCGGTAATCCGTATTTGGA (site CACTGGGCTTC)	0.201
CACTCGGCATGGACCGGTTTTCCCGGTAATCCGTATTTGGA (site CACTTGGCTTC)	0.0193
CACTCTTCATGGACCGGTTTTCCCGGTAATCCGTATTTGCC (site CACTCATCTGG)	1.6
CACTCTTCATGGACCGGTTTTCCCGGTAATCCGTATTTGCC (site CACTCCTCTGG)	2.13
CACTCTTCATGGACCGGTTTTCCCGGTAATCCGTATTTGCC (site CACTCGTCTGG)	0
CACTCTTCATGGACCGGTTTTCCCGGTAATCCGTATTTGCC (site CACTCTTCTGG)	2.07
CACTGTACATGGACCGGTTTTCCCGGTAATCCGTATTTGCG (site CACTGTACTCG)	1.83
CACTTAGCATGGACCGGTTTTCCCGGTAATCCGTATTTGGA (site CACTTAGCTTC)	1.16
CACTTAGCATGGACCGGTTTTCCCGGTAATCCGTATTTGGA (site CACTTCGCTTC)	0.00475
CACTTAGCATGGACCGGTTTTCCCGGTAATCCGTATTTGGA (site CACTTGGCTTC)	0.0129
CACTTAGCATGGACCGGTTTTCCCGGTAATCCGTATTTGGA (site CACTTTGCTTC)	0
CACTTGCCATGGACCGGTTTTCCCGGTAATCCGTATTTGGA (site CACTTGACTTC)	0.0268
CACTTGCCATGGACCGGTTTTCCCGGTAATCCGTATTTGGA (site CACTTGCCTTC)	0.021
CACTTGCCATGGACCGGTTTTCCCGGTAATCCGTATTTGGA (site CACTTGGCTTC)	0.0247
CACTTGCCATGGACCGGTTTTCCCGGTAATCCGTATTTGGA (site CACTTGTCTTC)	0.137
CACTTGGCATGGACCGGTTTTCCCGGTAATCCGTATTTGGA (site AACTTGGCTTC)	0.00381
CACTTGGCATGGACCGGTTTTCCCGGTAATCCGTATTTGGA (site CAATTGGCTTC)	0.432
CACTTGGCATGGACCGGTTTTCCCGGTAATCCGTATTTGGA (site CACATGGCTTC)	0.0226
CACTTGGCATGGACCGGTTTTCCCGGTAATCCGTATTTGGA (site CACCTGGCTTC)	0.612
CACTTGGCATGGACCGGTTTTCCCGGTAATCCGTATTTGGA (site CACGTGGCTTC)	0.024

Sequence	recombinant UMI read abundance (log10)
CACTTGGCATGGACCGGTTTTCCCGGTAATCCGTATTTGGA (site CACTAGGCTTC)	0.104
CACTTGGCATGGACCGGTTTTCCCGGTAATCCGTATTTGGA (site CACTCGGCTTC)	0.0123
CACTTGGCATGGACCGGTTTTCCCGGTAATCCGTATTTGGA (site CACTGGGCTTC)	0.0362
CACTTGGCATGGACCGGTTTTCCCGGTAATCCGTATTTGGA (site CACTTAGCTTC)	1.14
CACTTGGCATGGACCGGTTTTCCCGGTAATCCGTATTTGGA (site CACTTCGCTTC)	0.0367
CACTTGGCATGGACCGGTTTTCCCGGTAATCCGTATTTGGA (site CACTTGACTTC)	0.231
CACTTGGCATGGACCGGTTTTCCCGGTAATCCGTATTTGGA (site CACTTGCCTTC)	0.407
CACTTGGCATGGACCGGTTTTCCCGGTAATCCGTATTTGGA (site CACTTGGCTAC)	0.013
CACTTGGCATGGACCGGTTTTCCCGGTAATCCGTATTTGGA (site CACTTGGCTCC)	0.381
CACTTGGCATGGACCGGTTTTCCCGGTAATCCGTATTTGGA (site CACTTGGCTGC)	0.96
CACTTGGCATGGACCGGTTTTCCCGGTAATCCGTATTTGGA (site CACTTGGCTTA)	1.12
CACTTGGCATGGACCGGTTTTCCCGGTAATCCGTATTTGGA (site CACTTGGCTTC)	0.91
CACTTGGCATGGACCGGTTTTCCCGGTAATCCGTATTTGGA (site CACTTGGCTTG)	0.926
CACTTGGCATGGACCGGTTTTCCCGGTAATCCGTATTTGGA (site CACTTGGCTTT)	1.77
CACTTGGCATGGACCGGTTTTCCCGGTAATCCGTATTTGGA (site CACTTGTCTTC)	0.78
CACTTGGCATGGACCGGTTTTCCCGGTAATCCGTATTTGGA (site CACTTTGCTTC)	0.00347
CACTTGGCATGGACCGGTTTTCCCGGTAATCCGTATTTGGA (site CAGTTGGCTTC)	0.28
CACTTGGCATGGACCGGTTTTCCCGGTAATCCGTATTTGGA (site CATTTGGCTTC)	0.342
CACTTGGCATGGACCGGTTTTCCCGGTAATCCGTATTTGGA (site CCCTTGGCTTC)	0.304
CACTTGGCATGGACCGGTTTTCCCGGTAATCCGTATTTGGA (site CGCTTGGCTTC)	0.439
CACTTGGCATGGACCGGTTTTCCCGGTAATCCGTATTTGGA (site CTCTTGGCTTC)	0.0309
CACTTGGCATGGACCGGTTTTCCCGGTAATCCGTATTTGGA (site GACTTGGCTTC)	0.112
CACTTGGCATGGACCGGTTTTCCCGGTAATCCGTATTTGGA (site TACTTGGCTTC)	0.275
CACTTGGCATGGACCGGTTTTCCCGGTAATCCGTATTTGGC (site CACTTGGCTAC)	0.012
CACTTGGCATGGACCGGTTTTCCCGGTAATCCGTATTTGGC (site CACTTGGCTCC)	0.0109
